Measured values reported in patent US10202411B2, “3′-substituted methyl or alkynyl nucleosides nucleotides for the treatment of HCV” (priority 2014, dated 2019).
pEC50, pIC50: −log10 of the molar value. Like-named read-outs stand apart in the source and are kept apart here.

Key:
[1] = molecular target: wild-type HCV genotype 1b NS5B protein (Hepatitis C virus genotype 1b (isolate Con1) (HCV), UniProt Q9WMX2); test: HCV polymerase enzyme assay, wild-type; format: biochemical; conditions: nucleoside triphosphate form, recombinant HCV genotype 1b NS5B
Description: (§1) Test compounds in the form of nucleoside triphosphates were examined for inhibitory activity against purified HCV polymerase in a standard assay. Bacterial expression constructs encoding the approximately 65 kDa HCV genotype 1b NS5B protein were used to generate recombinant HCV polymerases (with a deletion of the 21 carboxy terminal amino acids). Both the wild-type genotype 1b protein and protein containing the S282T mutation were expressed and purified for use in the enzymatic activity assay.
(§2) The enzymatic activity assay measured the inhibitory effect of increasing concentrations of test compound on the incorporation of α-[^33P]-labeled nucleotide into trichloroacetic acid-precipitable material. Recombinant polymerase and synthetic RNA template were combined in reaction buffer containing ribonucleoside triphosphates, α-[^33P]-labeled nucleotide and eight concentrations of test compound in three-fold dilutions. Reactions were incubated for two hours at 30° C.
(§3) Reactions were terminated by the addition of ice-cold trichloroacetic acid and sodium pyrophosphate to promote precipitation of newly-synthesized ribonucleic acid. Precipitable material from the reactions was collected by filtration onto 96-well filter plates, washed extensively with water, and quantified by liquid scintillation.
(§4) The inhibitory activity of test compounds was determined by fitting results to dose-response curves using XLfit software.

[2] = molecular target: HCV genotype 1b NS5B protein containing the S282T mutation (Hepatitis C virus genotype 1b (isolate Con1) (HCV), UniProt Q9WMX2, S2701T); test: HCV polymerase enzyme assay, S282T mutant; format: biochemical; conditions: nucleoside triphosphate form, recombinant HCV genotype 1b NS5B
Description: as §1
as §2, with “Reactions were incubated for two hours at 30° C.” left out
as §3, §4

in vitro = conditions: human
HCV genotype 1b replicon = test: HCV replicon assay (Zluc luciferase reporter); format: cell-based
Description: Huh-7-derived cell line (Zluc) that harbors an HCV genotype 1b replicon and a luciferase reporter gene was grown in Dulbecco's Modified Eagle Medium (DMEM) supplemented with 10% fetal bovine serum, 2 mM GlutaMAX, 1% MEM nonessential amino acids, 100 IU/mL penicillin, 100 μg/mL streptomycin, and 0.5 mg/mL Geneticin® (G418). For dose response testing the cells were seeded in 96-well plates at 7.5×10^3 cells per well in a volume of 50 μL, and incubated at 37° C./5% CO2. Drug solutions were made up freshly in Huh-7 media as 2× stocks. Ten additional 5-fold dilutions were prepared from these stocks in DMEM without G418. At least three hours after Zluc cells were seeded, drug treatment was initiated by adding 50 μL of drug dilutions to the plates in duplicate. Final concentrations of drug ranged from 100 μM to 0.0000512 μM. Cells were then incubated at 37° C./5% CO2. Alternatively, compounds were tested at two concentrations (1 μM and 10 μM). […] After 72 hours of incubation, the inhibition of HCV replication was measured by quantification of photons emitted after mono-oxygenation of 5′-fluoroluciferin to oxyfluoroluciferin by firefly luciferase. For this, media was removed from the plates via gentle tapping. Fifty microliters of ONE-glo luciferase assay reagent was added to each well. The plates were shaken gently for 3 min at room temperature and luminescence was measured on a Victor^3 V 1420 multilabel counter (Perkin Elmer) with a 1 second read time using a 700 nm cut-off filter. The EC50 values were calculated from dose response curves from the resulting best-fit equations determined by Microsoft Excel and XLfit 4.1 software. When screening at two fixed concentrations, the results were expressed as % inhibition at 1 μM and 10 μM.

[3] = Pharmacokinetics of liver triphosphate following a single oral dose in CD-1 mice; format: in vivo; conditions: CD-1 male mice; for Ms Liver TP AUC: integrated concentration; for Ms Liver TP Cmax: single point concentration
Description: A single oral dose of Compound 1 at 10 mg/kg in PEG 200 (dose volume 5 mL/kg) was administered to nine CD-1 male mice. Five untreated animals were used for the collection of control liver. Liver samples were collected from three animals per time point at 4, 12 and 24 hours post dose. Liver specimens were collected from all animals immediately after the incision. Freezing forceps stored in liquid nitrogen were used to freeze the liver before excision.
Liver samples were analyzed for the active species nucleoside triphosphate by LC-MS/MS. The triphosphate levels were assayed by homogenizing (on ice) a known weight of mouse liver with 4× volume of 0.95 M trichloroacetic acid (TCA). Internal standard solution was added to the homogenate followed by neutralization with 20% ammonium hydroxide solution and addition of 500 μL 1% formic acid. The tissue samples were extracted by weak anion exchange solid phase extraction (SPE). Post extraction, the eluates were evaporated under nitrogen, followed by reconstitution before injection onto the LC-MS/MS system. The samples were chromatographed on a Luna NH2 column using a gradient system of ammonium acetate (1 mM to 20 mM and pH 8.0 to pH 10.0) in water and acetonitrile (70:30). The analyte was detected and quantified by tandem mass spectrometry in positive ion mode on an API4000 equipped with a Turbo Ionspray® interface.

[4] = Cytotoxicity evaluation, CellTiter-Blue Cell Viability Assay; conditions: human
Zluc cells = test: as above; conditions: read-out: HCV Replicon CC50; Zluc cells, CellTiter-Blue cell viability
[5] = Huh-7-derived Zluc cells, genotype 1b replicon, luciferase, 72 hours; read-out: HCV Replicon EC50

Compound	pIC50 [1]	pEC50 (HCV genotype 1b replicon; [5])	CC50 (Zluc cells)	also measured
Nc1ncnc2c1ncn2[C@@H]1O[C@H](COP(=O)(O)OP(=O)(O)OP(=O)(O)O)[C@@H](CF)[C@H]1O [Compound 326]	5.00 to 6.00	–	–	–
Nc1nc2c(ncn2[C@@H]2O[C@H](COP(=O)(O)OP(=O)(O)OP(=O)(O)O)[C@@H](CF)[C@H]2O)c(=O)[nH]1 [Compound 327]	> 6.60	–	–	pIC50 [2]: > 6.60
CCOc1nc(N)nc2c1ncn2[C@@H]1O[C@H](COP(=O)(N[C@H](C)C(=O)OC(C)C)Oc2ccccc2)[C@@H](CF)[C@H]1O (single isomer, unassigned) [Compound 125a Diastereomer 1]	–	–	–	CC50 (in vitro): > 50 µM; pEC50 (HCV genotype 1b replicon; Hepatitis C virus; Huh-7-derived Zluc cells, genotype 1b replicon, luciferase, 72 hours; read-out: HCV Replicon EC50): < 5.00; Ms Liver TP AUC [3]: +++ (500 <+++ ≤1500); Ms Liver TP Cmax [3]: +++ (50 < +++ ≤100)
Nc1nc2c(ncn2[C@@H]2O[C@H](COP(=O)(O)OP(=O)(O)OP(=O)(O)O)[C@@H](CO)[C@H]2O)c(=O)[nH]1 [Compound 308]	> 6.60	–	–	pIC50 [2]: > 6.60
CC(C)OC(=O)[C@@H](C)NP(=S)(OC[C@H]1O[C@@H](n2ccc(=O)[nH]c2=O)[C@H](O)[C@@H]1CO)Oc1ccccc1 (single isomer, unassigned) [Compound 122a Diastereomer 1]	–	–	–	pEC50 (HCV genotype 1b replicon; Hepatitis C virus, 72 h, read-out: HCV Replicon EC50): < 5.00; CC50 at 72 h [4]: > 50 µM
CCOc1nc(N)nc2c1ncn2[C@@H]1O[C@H](COP(=O)(N[C@H](C)C(=O)OC(C)C)Oc2ccccc2)[C@@H](CF)[C@H]1O (single isomer, unassigned) [Compound 125a Diastereomer 2]	–	< 5.00	> 50 µM	Ms Liver TP AUC [3]: +++ (500 <+++ ≤1500); Ms Liver TP Cmax [3]: +++ (50 < +++ ≤100)
Nc1ncnc2c1ncn2[C@@H]1O[C@H](COP(=O)(O)OP(=O)(O)OP(=O)(O)O)[C@@H](CO)[C@H]1O [Compound 307]	6.00 to 6.60	–	–	–
CC(C)OC(=O)[C@@H](C)NP(=S)(OC[C@H]1O[C@@H](n2ccc(=O)[nH]c2=O)[C@H](O)[C@@H]1CO)Oc1ccccc1 (single isomer, unassigned) [Compound 122a Diastereomer 2]	–	–	> 50 µM	pEC50 (HCV genotype 1b replicon; read-out: HCV Replicon EC50; Huh-7-derived Zluc cells, genotype 1b replicon, luciferase, 72 hours): < 5.00
CC(C)OP1(=O)OC[C@H]2[C@@H](O)[C@H](n3ccc(=O)[nH]c3=O)O[C@@H]2CO1 (single isomer, unassigned) [Compound 108 (Diastereomer 2)]	–	< 5.00	> 50 µM	–
C[C@@H](NP(=O)(OC[C@H]1O[C@@H](n2ccc(=O)[nH]c2=O)[C@H](O)[C@@H]1CO)Oc1ccccc1)C(=O)OCc1ccccc1 (single isomer, unassigned) [Compound 123a Diastereomer 2]	–	< 5.00	> 50 µM	–
